Test [1] has as its system Plasmodium falciparum. Put plainly: Antimicrobial activity against Plasmodium falciparum harboring NGFSDD genotype after 72 hrs by SYBR green I assay.
The subject of test [2] is Plasmodium falciparum. As to the kind of experiment: Antimicrobial activity against Plasmodium falciparum harboring CVMNT genotype after 72 hrs by SYBR green I assay.
The test system of test [3] is Plasmodium falciparum. Put plainly: Antimicrobial activity against Plasmodium falciparum harboring SVMNT genotype after 72 hrs by SYBR green I assay.

Molecules are shown by their SMILES.

The term IC50 denotes the concentration needed to halve the response being measured. A low value points to higher potency. Consider `OC(c1cc(C(F)(F)F)nc2c(C(F)(F)F)cccc12)C1CCCCN1` (stereo not drawn) [MEFLOQUINE], for which half-maximal inhibition in test [1] (IC50) was put at 0.021 µM.

Consider `C=C[C@H]1CN2CC[C@H]1C[C@H]2[C@H](O)c1ccnc2ccc(OC)cc12` [QUININE], for which the results for the IC50 in test [2] and in test [3] were 0.066 µM and 0.07 µM, respectively.
